Experiments:
Assay type in all cases: in vivo
[1] = tested on: large crabgrass (Digitaria sanguinalis); experiment: Test A pre-/postemergence plant response
How it was run: (§1)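 Formulated test chemicals (non-phytotoxic solvent, surfactant) were sprayed onto soil right after planting and simultaneously onto young plants at one to two leaves, 2 to 10 cm tall. Plants stayed in the greenhouse about ten days; injury was then visually scored against untreated controls, from 0 (no effect) to 100 (complete control).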

[2] = tested on: morningglory (Ipomoea spp.); experiment: Test A pre-/postemergence plant response
How it was run: as §1

[3] = tested on: velvetleaf (Abutilon theophrasti); experiment: Test A pre-/postemergence plant response
How it was run: as §1

[4] = tested on: wheat (Triticum aestivum); experiment: Test A pre-/postemergence plant response
How it was run: as §1

[5] = tested on: cocklebur (Xanthium strumarium); experiment: Test B pre-/postemergence plant response
How it was run: (§2)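 Ratings reflect visual comparison with untreated controls 13 to 15 days after application, from 0 (no effect) to 100 (complete control). Application was preemergence to seeded loam/sand soil or postemergence to 1- to 4-leaf plants, with compound in a non-phytotoxic, surfactant-containing solvent.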

[6] = tested on: downy bromegrass (Bromus tectorum); experiment: Test B pre-/postemergence plant response
How it was run: as §2

[7] = tested on: giant foxtail (Setaria faberii); experiment: Test B pre-/postemergence plant response
How it was run: as §2

[8] = tested on: goosegrass (Eleusine indica); experiment: Test B pre-/postemergence plant response
How it was run: as §2

[9] = tested on: green foxtail (Setaria viridis); experiment: Test B pre-/postemergence plant response
How it was run: as §2

kochia (Kochia scoparia) = experiment: Test B pre-/postemergence plant response
How it was run: as §2

[10] = tested on: morningglory (Ipomoea coccinea); experiment: Test B pre-/postemergence plant response
How it was run: as §2

[11] = tested on: pigweed (Amaranthus retroflexus); experiment: Test B pre-/postemergence plant response
How it was run: as §2

[12] = tested on: wheat (Triticum aestivum); experiment: Test B pre-/postemergence plant response
How it was run: as §2

[13] = Postemergence, 125 g ai/ha, visual injury, 0 to 100 scale (0 no effect, 100 complete control), approx. ten days
[14] = Postemergence, 500 g ai/ha, 0 to 100 scale, 0 = no effect, 100 = complete control, approx. ten days
[15] = Preemergence, 125 g ai/ha, 0 to 100 scale, 0 = no effect, 100 = complete control
[16] = Preemergence, 500 g ai/ha, visual injury, 0 to 100 scale (0 no effect, 100 complete control), approx. ten days
[17] = 250 g ai/ha, Preemergence, 0 to 100 scale
[18] = Postemergence, 31 g ai/ha, scale 0 to 100 (0 no effect, 100 complete control)
[19] = Postemergence, 62 g ai/ha, scale 0 (no effect) to 100 (complete control), 13 to 15 days
[20] = Postemergence, 125 g ai/ha, visual rating after 13 to 15 days, scale 0 (no effect) to 100 (complete control)
[21] = Postemergence, 250 g ai/ha, scale 0 to 100
[22] = Preemergence, 31 g ai/ha, scale 0 to 100 (0 no effect, 100 complete control)
[23] = Preemergence, 62 g ai/ha, scale 0 to 100, 0 no effect, 100 complete control
[24] = Preemergence, 125 g ai/ha, 0 to 100 scale

Compound: Cc1cccc(-n2c(-c3ccccc3)ncc(C(=O)C3=C(O)CCCC3=O)c2=O)c1C [Compound 27]
- Crabgrass, Large plant response rating [1, 13]: 70
- Plant response rating, Crabgrass, Large [1, 14]: 100
- Plant response rating, Crabgrass, Large [1, 15]: 30
- Plant response rating, Crabgrass, Large [1, 16]: 90
- Morningglory plant response rating [2, 13]: 60
- Plant response rating, Morningglory [2, 14]: 70
- Plant response rating, Morningglory [2, 15]: 20
- Plant response rating, Morningglory [2, 16]: 80
- Velvetleaf plant response rating [3, 13]: 100
- Plant response rating, Velvetleaf [3, 14]: 100
- Plant response rating, Velvetleaf [3, 15]: 60
- Plant response rating, Velvetleaf [3, 16]: 100
- Wheat plant response rating [4, 13]: 0
- Plant response rating, Wheat [4, 14]: 0
- Plant response rating, Wheat [4, 15]: 0
- Plant response rating, Wheat [4, 16]: 0
- Plant response rating, Cocklebur [5, 17]: 90
- Plant response rating, Cocklebur [5, 18]: 90
- Plant response rating, Cocklebur [5, 19]: 95
- Plant response rating, Cocklebur [5, 20]: 95
- Cocklebur plant response rating [5, 21]: 98
- Plant response rating, Cocklebur [5, 22]: 0
- Plant response rating, Cocklebur [5, 23]: 85
- Cocklebur plant response rating [5, 24]: 85
- Plant response rating, Bromegrass, Downy [6, 17]: 30
- Plant response rating, Bromegrass, Downy [6, 18]: 5
- Plant response rating, Bromegrass, Downy [6, 19]: 5
- Plant response rating, Bromegrass, Downy [6, 20]: 20
- Bromegrass, Downy plant response rating [6, 21]: 30
- Plant response rating, Bromegrass, Downy [6, 22]: 0
- Plant response rating, Bromegrass, Downy [6, 23]: 0
- Bromegrass, Downy plant response rating [6, 24]: 0
- Plant response rating, Foxtail, Giant [7, 17]: 95
- Plant response rating, Foxtail, Giant [7, 18]: 65
- Plant response rating, Foxtail, Giant [7, 19]: 85
- Plant response rating, Foxtail, Giant [7, 20]: 90
- Foxtail, Giant plant response rating [7, 21]: 90
- Plant response rating, Foxtail, Giant [7, 22]: 0
- Plant response rating, Foxtail, Giant [7, 23]: 5
- Foxtail, Giant plant response rating [7, 24]: 85
- Plant response rating, Goosegrass [8, 17]: 100
- Plant response rating, Goosegrass [8, 18]: 90
- Plant response rating, Goosegrass [8, 19]: 90
- Plant response rating, Goosegrass [8, 20]: 98
- Goosegrass plant response rating [8, 21]: 98
- Plant response rating, Goosegrass [8, 22]: 80
- Goosegrass plant response rating [8, 24]: 100
- Plant response rating, Foxtail, Green [9, 17]: 80
- Plant response rating, Foxtail, Green [9, 18]: 80
- Plant response rating, Foxtail, Green [9, 19]: 80
- Plant response rating, Foxtail, Green [9, 20]: 80
- Foxtail, Green plant response rating [9, 21]: 90
- Plant response rating, Foxtail, Green [9, 22]: 0
- Plant response rating, Foxtail, Green [9, 23]: 30
- Foxtail, Green plant response rating [9, 24]: 50
- Plant response rating, Kochia (kochia (Kochia scoparia); [17]): 100
- Plant response rating, Kochia (kochia (Kochia scoparia); [20]): 100
- Kochia plant response rating (kochia (Kochia scoparia); [21]): 100
- Plant response rating, Kochia (kochia (Kochia scoparia); [22]): 100
- Plant response rating, Kochia (kochia (Kochia scoparia); [23]): 100
- Kochia plant response rating (kochia (Kochia scoparia); [24]): 100
- Plant response rating, Morningglory [10, 17]: 100
- Plant response rating, Morningglory [10, 18]: 50
- Plant response rating, Morningglory [10, 19]: 80
- Plant response rating, Morningglory [10, 20]: 80
- Morningglory plant response rating [10, 21]: 90
- Plant response rating, Morningglory [10, 22]: 100
- Plant response rating, Morningglory [10, 23]: 100
- Morningglory plant response rating [10, 24]: 100
- Plant response rating, Pigweed [11, 17]: 100
- Plant response rating, Pigweed [11, 18]: 98
- Plant response rating, Pigweed [11, 19]: 98
- Plant response rating, Pigweed [11, 20]: 100
- Pigweed plant response rating [11, 21]: 100
- Plant response rating, Pigweed [11, 22]: 100
- Plant response rating, Pigweed [11, 23]: 100
- Pigweed plant response rating [11, 24]: 100
- Plant response rating, Wheat [12, 17]: 5
- Plant response rating, Wheat [12, 18]: 0
- Plant response rating, Wheat [12, 19]: 5
- Plant response rating, Wheat [12, 20]: 10
- Wheat plant response rating [12, 21]: 30
- Plant response rating, Wheat [12, 22]: 0
- Plant response rating, Wheat [12, 23]: 0
- Wheat plant response rating [12, 24]: 0

Compound: Cc1ccc(C)c(-n2c(-c3ccccc3)ncc(C(=O)C3=C(O)CCCC3=O)c2=O)c1 [Compound 29]
- Crabgrass, Large plant response rating [1, 13]: 70
- Plant response rating, Crabgrass, Large [1, 14]: 90
- Plant response rating, Crabgrass, Large [1, 15]: 20
- Plant response rating, Crabgrass, Large [1, 16]: 100
- Morningglory plant response rating [2, 13]: 60
- Plant response rating, Morningglory [2, 14]: 90
- Plant response rating, Morningglory [2, 15]: 40
- Plant response rating, Morningglory [2, 16]: 80
- Velvetleaf plant response rating [3, 13]: 100
- Plant response rating, Velvetleaf [3, 14]: 100
- Plant response rating, Velvetleaf [3, 15]: 20
- Plant response rating, Velvetleaf [3, 16]: 100
- Wheat plant response rating [4, 13]: 0
- Plant response rating, Wheat [4, 14]: 0
- Plant response rating, Wheat [4, 15]: 0
- Plant response rating, Wheat [4, 16]: 0
- Plant response rating, Cocklebur [5, 17]: 90
- Plant response rating, Cocklebur [5, 18]: 85
- Plant response rating, Cocklebur [5, 19]: 95
- Plant response rating, Cocklebur [5, 20]: 95
- Cocklebur plant response rating [5, 21]: 98
- Plant response rating, Cocklebur [5, 22]: 5
- Plant response rating, Cocklebur [5, 23]: 80
- Cocklebur plant response rating [5, 24]: 90
- Plant response rating, Bromegrass, Downy [6, 17]: 5
- Plant response rating, Bromegrass, Downy [6, 18]: 5
- Plant response rating, Bromegrass, Downy [6, 19]: 10
- Plant response rating, Bromegrass, Downy [6, 20]: 40
- Bromegrass, Downy plant response rating [6, 21]: 45
- Plant response rating, Bromegrass, Downy [6, 22]: 0
- Plant response rating, Bromegrass, Downy [6, 23]: 0
- Bromegrass, Downy plant response rating [6, 24]: 0
- Plant response rating, Foxtail, Giant [7, 17]: 100
- Plant response rating, Foxtail, Giant [7, 18]: 80
- Plant response rating, Foxtail, Giant [7, 19]: 90
- Plant response rating, Foxtail, Giant [7, 20]: 90
- Foxtail, Giant plant response rating [7, 21]: 95
- Plant response rating, Foxtail, Giant [7, 22]: 10
- Plant response rating, Foxtail, Giant [7, 23]: 50
- Foxtail, Giant plant response rating [7, 24]: 100
- Plant response rating, Goosegrass [8, 17]: 100
- Plant response rating, Goosegrass [8, 19]: 85
- Plant response rating, Goosegrass [8, 20]: 85
- Goosegrass plant response rating [8, 21]: 95
- Plant response rating, Goosegrass [8, 22]: 95
- Goosegrass plant response rating [8, 24]: 100
- Plant response rating, Foxtail, Green [9, 17]: 100
- Plant response rating, Foxtail, Green [9, 18]: 60
- Plant response rating, Foxtail, Green [9, 19]: 75
- Plant response rating, Foxtail, Green [9, 20]: 75
- Foxtail, Green plant response rating [9, 21]: 90
- Plant response rating, Foxtail, Green [9, 22]: 0
- Plant response rating, Foxtail, Green [9, 23]: 40
- Foxtail, Green plant response rating [9, 24]: 100
- Plant response rating, Kochia (kochia (Kochia scoparia); [17]): 100
- Plant response rating, Kochia (kochia (Kochia scoparia); [22]): 98
- Plant response rating, Kochia (kochia (Kochia scoparia); [23]): 100
- Kochia plant response rating (kochia (Kochia scoparia); [24]): 100
- Plant response rating, Morningglory [10, 17]: 100
- Plant response rating, Morningglory [10, 19]: 70
- Plant response rating, Morningglory [10, 20]: 80
- Morningglory plant response rating [10, 21]: 98
- Plant response rating, Morningglory [10, 22]: 100
- Plant response rating, Morningglory [10, 23]: 100
- Morningglory plant response rating [10, 24]: 100
- Plant response rating, Pigweed [11, 17]: 100
- Plant response rating, Pigweed [11, 19]: 65
- Plant response rating, Pigweed [11, 20]: 80
- Pigweed plant response rating [11, 21]: 85
- Plant response rating, Pigweed [11, 22]: 100
- Plant response rating, Pigweed [11, 23]: 100
- Pigweed plant response rating [11, 24]: 100
- Plant response rating, Wheat [12, 17]: 0
- Plant response rating, Wheat [12, 19]: 0
- Plant response rating, Wheat [12, 20]: 10
- Wheat plant response rating [12, 21]: 40
- Plant response rating, Wheat [12, 22]: 0
- Plant response rating, Wheat [12, 23]: 0
- Wheat plant response rating [12, 24]: 0
